Each molecule was assayed against human SPR (Homo sapiens (Human), UniProt P35270) (assay: Evaluation Example 2: Measurement of human SPR inhibitory activity (seven concentrations, sepiapterin absorbance at 420 nm)). Conditions: Evaluation Example 2, seven concentrations 0.14 nM to 100 nM, 240 minutes at room temperature, read-out: IC50.
Type: biochemical
In short: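 His-tagged full-length human SPR (1-261) was expressed in E. coli and the tag removed. Enzyme at 150 ng/mL in 100 mM Tris-HCl pH 7.5/0.01% BSA was mixed with compound (0.14–100 nM, seven points), 120 μM sepiapterin and 160 μM NADPH, both as added-solution concentrations. After 240 min at room temperature, remaining sepiapterin was read at 420 nm to give percent inhibition.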

Sequence of human SPR (P35270 whole entry): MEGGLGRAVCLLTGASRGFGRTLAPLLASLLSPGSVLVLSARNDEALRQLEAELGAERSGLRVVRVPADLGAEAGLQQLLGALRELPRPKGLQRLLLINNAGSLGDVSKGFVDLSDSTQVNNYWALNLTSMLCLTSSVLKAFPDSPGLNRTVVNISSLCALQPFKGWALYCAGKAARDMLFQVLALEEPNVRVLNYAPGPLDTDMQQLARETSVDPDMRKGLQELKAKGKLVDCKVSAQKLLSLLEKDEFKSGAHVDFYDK

SMILES	IC50 [nM]
CC(C)(C)Cn1c(=O)c(C(=O)NC2CC2)c(O)n2nc(-c3cc(F)cnc3N)cc12 [Synthesis Example 285, 2-(2-Amino-5-fluoropyridin-3-yl)-N-cyclopropyl-7-hydroxy-4-neopentyl-5-oxo-4,5-dihydropyrazolo[1,5-a]pyrimidine-6-carboxamide]	3.28
CC(C)(C)Cn1c(=O)c(C(=O)NC2CC2)c(O)n2nc(-c3cn[nH]c3)cc12 [Synthesis Example 286, N-Cyclopropyl-7-hydroxy-4-neopentyl-5-oxo-2-(1H-pyrazol-4-yl)-4,5-dihydropyrazolo[1,5-a]pyrimidine-6-carboxamide]	1.54
Cc1cn[nH]c1-c1cc2n(CC(C)(C)C)c(=O)c(C(=O)NC3CC3)c(O)n2n1 [Synthesis Example 287, N-Cyclopropyl-7-hydroxy-2-(4-methyl-1H-pyrazol-5-yl)-4-neopentyl-5-oxo-4,5-dihydropyrazolo[1,5-a]pyrimidine-6-carboxamide]	2.53
CC(C)(C)Cn1c(=O)c(C(=O)NC2CC2)c(O)n2nc(-c3cncnc3)cc12 [Synthesis Example 288, N-Cyclopropyl-7-hydroxy-4-neopentyl-5-oxo-2-(pyrimidin-5-yl)-4,5-dihydropyrazolo[1,5-a]pyrimidine-6-carboxamide]	1.37
CC(C)(C)Cn1c(=O)c(C(=O)NC2CC2)c(O)n2nc(-c3cnc(N)nc3)cc12 [Synthesis Example 289, 2-(2-Aminopyrimidin-5-yl)-N-cyclopropyl-7-hydroxy-4-neopentyl-5-oxo-4,5-dihydropyrazolo[1,5-a]pyrimidine-6-carboxamide]	2.05
Nc1ncccc1-c1cc2n(CC3CCOCC3)c(=O)c(C(=O)NC3CC3)c(O)n2n1 [Synthesis Example 290, 2-(2-Aminopyridin-3-yl)-N-cyclopropyl-7-hydroxy-5-oxo-4-((tetrahydro-2H-pyran-4-yl)methyl)-4,5-dihydropyrazolo[1,5-a]pyrimidine-6-carboxamide]	0.93
CC(C)(C)Cn1c(=O)c(C(=O)NC2CC2)c(O)n2nc(-c3cc(C#N)cnc3N)cc12 [Synthesis Example 291, 2-(2-Amino-5-cyanopyridin-3-yl)-N-cyclopropyl-7-hydroxy-4-neopentyl-5-oxo-4,5-dihydropyrazolo[1,5-a]pyrimidine-6-carboxamide]	6.42
CC(C)(C)Cn1c(=O)c(C(=O)NC2CC2)c(O)n2nc(-c3n[nH]cc3C#N)cc12 [Synthesis Example 292, 2-(4-Cyano-1H-pyrazol-3-yl)-N-cyclopropyl-7-hydroxy-4-neopentyl-5-oxo-4,5-dihydropyrazolo[1,5-a]pyrimidine-6-carboxamide]	1.32
CC(C)(C)Cn1c(=O)c(C(=O)NC2CC2)c(O)n2nc(-c3cccnc3C#N)cc12 [Synthesis Example 293, 2-(2-Cyanopyridin-3-yl)-N-cyclopropyl-7-hydroxy-4-neopentyl-5-oxo-4,5-dihydropyrazolo[1,5-a]pyrimidine-6-carboxamide]	2.24
CC(C)(C)Cn1c(=O)c(C(=O)NC2CC2)c(O)n2nc(-c3cnccc3C#N)cc12 [Synthesis Example 294, 2-(4-Cyanopyridin-3-yl)-N-cyclopropyl-7-hydroxy-4-neopentyl-5-oxo-4,5-dihydropyrazolo[1,5-a]pyrimidine-6-carboxamide]	2.26
CC(C)(C)Cn1c(=O)c(C(=O)NC2CC2)c(O)n2nc(-c3cnccc3F)cc12 [Synthesis Example 295, N-Cyclopropyl-2-(4-fluoropyridin-3-yl)-7-hydroxy-4-neopentyl-5-oxo-4,5-dihydropyrazolo[1,5-a]pyrimidine-6-carboxamide]	2.48
CC(C)(C)Cn1c(=O)c(C(=O)NC2CC2)c(O)n2nc(-c3cc(C#N)n[nH]3)cc12 [Synthesis Example 296, 2-(3-Cyano-1H-pyrazol-5-yl)-N-cyclopropyl-7-hydroxy-4-neopentyl-5-oxo-4,5-dihydropyrazolo[1,5-a]pyrimidine-6-carboxamide]	2.93

Reference: patent US20240092784A1, “CONDENSED HETEROCYCLIC COMPOUND” (NISSAN CHEMICAL CORPORATION, priority 2020, published 2024)
